Series [1] addresses T1, Signal transducer and activator of transcription 3 (Homo sapiens, UniProt P40763). The series is described as follows: Inhibition of STAT3 in human DU145 cells assessed as ratio of Bcl-2 protein level to tubulin protein level at 5 uM after 48 hrs by Western blot analysis (reference value: 1). The class given is cell-based.
Series [2] addresses T1, Signal transducer and activator of transcription 3. Put plainly: Binding affinity to STAT3 in human DU145 cell lysates assessed as reduction in pronase-induced STAT3 digestion by measuring ratio of STAT3 protein level to GAPDH protein level incubated for 1 hr followed by 0.05% pronase addition for 10 mins by Western blot analysis. On the technique in general: In western blotting, separated proteins are transferred to a membrane and probed.

Series [3] has the same target. The series is described as follows: Inhibition of STAT3-induced ERK1/2 phosphorylation in human DU145 cells assessed as ratio of phosphorylated ERK1/2 protein level to GAPDH protein level at 5 uM after 1 hr by Western blot analysis (reference value: 1). It counts as cell-based.
Series [4] has the same target. The series is described as follows: Binding affinity to STAT3 in human DU145 cell lysates assessed as reduction in pronase-induced STAT3 digestion by measuring ratio of STAT3 protein level to GAPDH protein level at 10 uM incubated for 1 hr followed by 0.05% pronase addition for 10 mins by Western blot analysis (reference value: 1).
Series [5] has the same target. The series is described as follows: Binding affinity to STAT3 in human DU145 cell lysates assessed as reduction in pronase-induced STAT3 digestion by measuring ratio of STAT3 protein level to GAPDH protein level at 100 uM incubated for 1 hr followed by 0.05% pronase addition for 10 mins by Western blot analysis (reference value: 1).
Series [6] has the same target. Put plainly: Inhibition of STAT3 phosphorylation at Tyr705 residues in human DU145 cells assessed as ratio of phosphorylated STAT3 protein level to GAPDH protein level at 1 uM after 24 hrs by Western blot analysis (reference value: 1). It counts as cell-based.
Series [7] shares this target. Put plainly: Binding affinity to STAT3 in human DU145 cell lysates assessed as reduction in pronase-induced STAT3 digestion by measuring ratio of STAT3 protein level to GAPDH protein level at 50 uM incubated for 1 hr followed by 0.005% pronase addition for 10 mins by Western blot analysis (reference value: 0.9).
Series [8] has as its system DU-145. The series is described as follows: Effect on total STAT3 protein level in human DU145 cells assessed as ratio of STAT3 protein level to GAPDH protein level at 5 uM after 6 hrs by Western blot analysis (reference value: 1). As to conditions: du-145, 6 h. It counts as ADME, cell-based.
Series [9] addresses T1, Signal transducer and activator of transcription 3. The series is described as follows: Inhibition of STAT3 in human DU145 cells assessed as ratio of cyclin D1 protein level to tubulin protein level at 5 uM after 48 hrs by Western blot analysis (reference value: 1). The class given is cell-based.
Series [10] shares this target. The series is described as follows: Inhibition of STAT3 in human DU145 cells assessed as increase in ERK1/2 phosphorylation at 5 uM by Western blot analysis. Particulars: TDE = time-dependent effect. The class given is cell-based.
In series [11] the test system is DU-145. Put plainly: Cell cycle arrest in human DU145 cells assessed as accumulation at G0/G1 phase at 5 uM after 24 hrs by flow cytometry (reference value: 24.07%). It counts as functional.
For series [12], the target named is T1, Signal transducer and activator of transcription 3. Put plainly: Binding affinity to STAT3 in human DU145 cell lysates assessed as reduction in pronase-induced STAT3 digestion by measuring ratio of STAT3 protein level to GAPDH protein level incubated for 1 hr in absence of pronase by Western blot analysis.
Series [13] has the same target. The series is described as follows: Inhibition of STAT3 in human DU145 cells assessed as ratio of PARP protein level to tubulin protein level at 5 uM after 48 hrs by Western blot analysis (reference value: 1). The class given is cell-based.
The target is the same in series [14]. Put plainly: Inhibition of STAT3-induced ERK1/2 phosphorylation in human DU145 cells assessed as ratio of phosphorylated ERK1/2 protein level to GAPDH protein level at 5 uM after 12 hrs by Western blot analysis (reference value: 1). The class given is cell-based.
Series [15] deals with DU-145. The series is described as follows: Cell cycle arrest in human DU145 cells assessed as accumulation at S phase at 5 uM after 12 hrs by flow cytometry (reference value: 6.6%). It counts as functional. On the technique in general: In flow cytometry, cells or beads pass a laser one at a time.
The target of series [16] is T1, Signal transducer and activator of transcription 3. The series is described as follows: Inhibition of STAT3 phosphorylation at Tyr705 residues in human DU145 cells assessed as ratio of phosphorylated STAT3 protein level to GAPDH protein level at 5 uM after 12 hrs by Western blot analysis (reference value: 1). The class given is cell-based.
Series [17] relates to DU-145. The series is described as follows: Effect on total STAT3 protein level in human DU145 cells assessed as ratio of STAT3 protein level to GAPDH protein level at 1 uM after 24 hrs by Western blot analysis (reference value: 1). The class given is ADME, cell-based. As to conditions: du-145, 24 h.

T1 sequence (P40763 whole entry): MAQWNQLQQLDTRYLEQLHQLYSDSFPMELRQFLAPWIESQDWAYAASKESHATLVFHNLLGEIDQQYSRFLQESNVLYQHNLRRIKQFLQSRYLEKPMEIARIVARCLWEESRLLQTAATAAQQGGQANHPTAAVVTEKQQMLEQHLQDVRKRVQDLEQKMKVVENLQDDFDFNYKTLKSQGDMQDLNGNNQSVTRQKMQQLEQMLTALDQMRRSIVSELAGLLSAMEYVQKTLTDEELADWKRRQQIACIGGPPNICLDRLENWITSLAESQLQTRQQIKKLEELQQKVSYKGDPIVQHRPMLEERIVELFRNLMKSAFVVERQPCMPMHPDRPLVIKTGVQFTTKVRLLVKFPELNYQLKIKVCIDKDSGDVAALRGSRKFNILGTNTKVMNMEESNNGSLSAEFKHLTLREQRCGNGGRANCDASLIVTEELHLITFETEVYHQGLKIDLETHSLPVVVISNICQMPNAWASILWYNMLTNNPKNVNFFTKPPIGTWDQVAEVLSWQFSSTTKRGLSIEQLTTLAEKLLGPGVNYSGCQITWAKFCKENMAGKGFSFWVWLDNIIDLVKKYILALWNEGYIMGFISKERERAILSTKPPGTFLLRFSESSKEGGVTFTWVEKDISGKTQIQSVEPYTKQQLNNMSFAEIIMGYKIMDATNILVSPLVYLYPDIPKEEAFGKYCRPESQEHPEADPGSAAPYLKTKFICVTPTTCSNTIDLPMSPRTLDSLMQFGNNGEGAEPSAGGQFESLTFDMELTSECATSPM

As to `C=C(C)C(=O)N(Cc1ccc(Br)cc1)C(=O)/C=C/c1cc(OC)c(OC)c(OC)c1`, the Ratio in series [1] came out at 0.7; in [3], 1.8; in series [4], 2.1; in series [5], 2.3; in series [6] it was 0.6; in [7], 0.8. The Ratio is 1 in [8]; 0.9 in [9]; 0.3 to 0.6 in series [13]; 2.3 in series [14]; 0.2 in series [16]; 1.1 in series [17]. For the same compound, the Activity entry was “Dose-dependent effect” in series [2], 34.79% in series [11], “Dose-dependent effect” in series [12] and 8.76% in [15]. The inhibition result in [10] is “Tde”.

These data come from ChEMBL document CHEMBL4219265, “Piperlongumine derivative, CG-06, inhibits STAT3 activity by direct binding to STAT3 and regulating the reactive oxygen species in DU145 prostate carcinoma cells” (Bioorg Med Chem Lett, 2018).
